In article PMC12196476, “New Nitrogen-, Oxygen-, and Sulfur-Containing Heterocyclic Compounds as Anti-Colon Cancer Agents: Synthesis, Multitargeted Evaluations, Molecular Docking Simulations and ADMET Predictions” (Pharmaceuticals, 2025):

Assays:
[1] = tested on: LoVo colon carcinoma cells; assay: Cell viability, LDH release assay, LoVo; conditions: Homo sapiens, LoVo, 48 h
[2] = tested on: Bax, Bcl-2 and Casp-3 genes expression in LoVo cells; assay: qRT-PCR of Bax, Bcl-2 and Casp-3 gene expression, LoVo; assay type: cell-based, human; conditions: 30 µg/mL, 48 h
Protocol: To investigate molecular events downstream of ROS generation, we evaluated mRNA expression levels of key regulators of mitochondrial apoptosis—Bax and Bcl-2—using qRT-PCR. […] As a result, the Bax/Bcl-2 ratios were calculated to be 12.63 in LoVo cells and 8.71 in HCT-116 cells, reflecting a pronounced pro-apoptotic shift. This alteration in the Bax/Bcl-2 ratio strongly supports the activation of the mitochondrial apoptotic pathway.
To confirm activation of the execution phase of apoptosis, Casp-3 mRNA levels were evaluated by qRT-PCR.
The expression levels of these genes were determined using a quantitative real-time PCR technique. […]
S3.2.9. Quantification of the Expression Levels of Bax, Bcl-2 and Caspase-3 Genes
Human colon cancer cell lines (HCT-116 and LoVo) were cultured for 24 h in a 25 mL flask at
a density of 1 * 10^6 cells/flask as described in section S3.2.4. Cells were treated with 30 µg/mL
of compound 3d in 2 mL of fresh medium containing 1% FBS, or with 0.25 % DMSO as a
negative control, for 48 h. Afterwards, cells were washed with ice-cold phosphate-buffered
saline (PBS) and adherent cells were detached using trypsin solution.
Table S7 lists primers amplifying 100-200 bp of Bax, Bcl-2 and Caspase-3 genes. These primers
were designed using primer blast software (https://www.ncbi.nlm.nih.gov/tools/primer-
Table S7. Primer sequences for Bax, Bcl-2, Caspase-3, and GAPDH (control)
Gene Primer sequence (5’ to 3’)
Bcl-2 F 5’-[…] -3’,
Caspase 3 F 5’- […]-3’,
GAPDH F 5’- […]-3’
• Reverse-Transcription PCR (RT-PCR)
The total RNA was extracted from untreated and treated cells using the RNeasy Mini Kit
(Qiagen, DE). A Nanodrop 8000 spectrophotometer (Thermo Fisher Scientific, USA) was
used to check the RNA purity and quality. The Hyperscript Kit (GeneAll, KR) and random
hexamers (GeneAll, KR) were used as described in the manufacturer’s protocol to reverse-
transcript 1µg of RNA from each sample into cDNA.
• Quantitative real-time PCR
The mRNA expression of Bax, Bcl-2, and Caspase-3 were measured using QuantStudio
7Flex Detection System (Applied Biosystems, USA). The iScript One-Step RT-PCR Kit with
SYBR Green (Cat no: 170-8892; Bio-Rad, CA, USA) was used to carry out the reactions for
the synthesis of cDNA. Each cDNA sample (5 µl) was added in a 20 µL PCR mixture

[3] = relative to untreated controls, normalized to GAPDH

COc1cc(/C=N/c2ncnc3sc4c(c23)CCCC4)cc(OC)c1OC [Compound 3d, (E)-N-(5,6,7,8-Tetrahydrobenzo[4,5]thieno[2,3-d]pyrimidin-4-yl)-1-(3,4,5-trimethoxyphenyl)methanimine]
viability at 100 µg/mL ([1]; read-out: Mean % of viable cells ± SD, LoVo, 100 µg/mL, 48 h, LDH release assay): < 29%
IC50 ([1]; read-out: Mean IC50 Values in µM ± SD, LoVo cells): 157 µM
Bax/Bcl-2 ratio, LoVo cells [2]: 12.63
Bax mRNA expression, fold of control (LoVo) [2, 3]: 3.03 ± 0.41 fold
Bcl-2 mRNA expression, fold of control (LoVo) [2, 3]: 0.24 ± 0.03 fold
Casp-3 mRNA expression, fold of control (LoVo) [2, 3]: 5.35 ± 0.33 fold
